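The compound was tested at five concentrations on cells cultured in 96-well plates, with a 48-hour exposure period. Here, GI50 denotes the concentration required for 50% inhibition of growth.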 The source made the active and inactive calls. No stated cut-off is given here; in the data, active = GI50 up to about 1.1 µM and inactive = higher.
What was measured:
Assay in all cases: NCI-60 cell line screen, 48 h
786-0 = tested on: 786-0
A549 = tested on: A549
ACHN = tested on: ACHN
BT-549 = tested on: BT-549
CCRF-CEM = tested on: CCRF-CEM
COLO 205 = tested on: COLO 205
DU-145 = tested on: DU-145
EKVX = tested on: EKVX
HCC 2998 = tested on: HCC 2998
HCT-116 = tested on: HCT-116
HCT-15 = tested on: HCT-15
HL-60 = tested on: HL-60
HOP-62 = tested on: HOP-62
HOP-92 = tested on: HOP-92
HT-29 = tested on: HT-29
Hs-578T = tested on: Hs-578T
IGROV-1 = tested on: IGROV-1
K562 = tested on: K562
KM12 = tested on: KM12
M14 = tested on: M14
MCF7 = tested on: MCF7
MDA-MB-231 = tested on: MDA-MB-231
MDA-MB-435 = tested on: MDA-MB-435
MDA-N = tested on: MDA-N
MOLT-4 = tested on: MOLT-4
Malme-3M = tested on: Malme-3M
NCI-H226 = tested on: NCI-H226
NCI-H23 = tested on: NCI-H23
NCI-H460 = tested on: NCI-H460
NCI-H522 = tested on: NCI-H522
NCI/ADR-RES = tested on: NCI/ADR-RES
OVCAR-3 = tested on: OVCAR-3
OVCAR-4 = tested on: OVCAR-4
OVCAR-5 = tested on: OVCAR-5
OVCAR-8 = tested on: OVCAR-8
PC-3 = tested on: PC-3
RPMI-8226 = tested on: RPMI-8226
RXF 393 = tested on: RXF 393
SF-268 = tested on: SF-268
SF-295 = tested on: SF-295
SF-539 = tested on: SF-539
SK-MEL-28 = tested on: SK-MEL-28
SK-MEL-5 = tested on: SK-MEL-5
SK-OV-3 = tested on: SK-OV-3
SN12C = tested on: SN12C
SNB-19 = tested on: SNB-19
SNB-75 = tested on: SNB-75
SR = tested on: SR
SW-620 = tested on: SW-620
T47D = tested on: T47D
TK-10 = tested on: TK-10
U-251 = tested on: U-251
UACC-257 = tested on: UACC-257
UACC-62 = tested on: UACC-62
CAKI-1 = tested on: CAKI-1
LOX IMVI = tested on: LOX IMVI
SK-MEL-2 = tested on: SK-MEL-2
UO-31 = tested on: UO-31

CCn1c(-c2cc(OC)cc(OC)c2)nc2c1C(=O)c1ccccc1C2=O
GI50 (786-0): 45.4 µM (inactive)
GI50 (A549): > 100 µM (inactive)
GI50 (ACHN): > 100 µM (inactive)
GI50 (BT-549): > 100 µM (inactive)
GI50 (CCRF-CEM): > 100 µM (inactive)
GI50 (COLO 205): > 100 µM (inactive)
GI50 (DU-145): > 100 µM (inactive)
GI50 (EKVX): > 100 µM (inactive)
GI50 (HCC 2998): > 100 µM (inactive)
GI50 (HCT-116): > 100 µM (inactive)
GI50 (HCT-15): > 100 µM
GI50 (HL-60): > 100 µM (inactive)
GI50 (HOP-62): 64.6 µM (inactive)
GI50 (HOP-92): 60 µM (inactive)
GI50 (HT-29): > 100 µM (inactive)
GI50 (Hs-578T): 36.5 µM (inactive)
GI50 (IGROV-1): > 100 µM (inactive)
GI50 (K562): > 100 µM (inactive)
GI50 (KM12): > 100 µM (inactive)
GI50 (M14): > 100 µM (inactive)
GI50 (MCF7): > 100 µM (inactive)
GI50 (MDA-MB-231): > 100 µM (inactive)
GI50 (MDA-MB-435): > 100 µM (inactive)
GI50 (MDA-N): > 100 µM (inactive)
GI50 (MOLT-4): > 100 µM (inactive)
GI50 (Malme-3M): > 100 µM (inactive)
GI50 (NCI-H226): > 100 µM (inactive)
GI50 (NCI-H23): > 100 µM (inactive)
GI50 (NCI-H460): > 100 µM (inactive)
GI50 (NCI-H522): 6.46 µM (inactive)
GI50 (NCI/ADR-RES): > 100 µM (inactive)
GI50 (OVCAR-3): > 100 µM (inactive)
GI50 (OVCAR-4): > 100 µM (inactive)
GI50 (OVCAR-5): > 100 µM (inactive)
GI50 (OVCAR-8): > 100 µM (inactive)
GI50 (PC-3): > 100 µM (inactive)
GI50 (RPMI-8226): > 100 µM (inactive)
GI50 (RXF 393): 13.9 µM (inactive)
GI50 (SF-268): 65.8 µM (inactive)
GI50 (SF-295): 29.2 µM (inactive)
GI50 (SF-539): > 100 µM (inactive)
GI50 (SK-MEL-28): > 100 µM (inactive)
GI50 (SK-MEL-5): > 100 µM (inactive)
GI50 (SK-OV-3): 3.9 µM (inactive)
GI50 (SN12C): > 100 µM (inactive)
GI50 (SNB-19): > 100 µM (inactive)
GI50 (SNB-75): 22.4 µM (inactive)
GI50 (SR): > 100 µM (inactive)
GI50 (SW-620): > 100 µM (inactive)
GI50 (T47D): > 100 µM (inactive)
GI50 (TK-10): > 100 µM (inactive)
GI50 (U-251): > 100 µM (inactive)
GI50 (UACC-257): > 100 µM (inactive)
GI50 (UACC-62): 20.6 µM (inactive)

COC(=O)c1c(OC)cc2cc3c(c(O)c2c1C)C(=O)C1(O)C(=O)C=C(OC)C(OC(=O)CC(C)N)=C1C3=O (configuration not stated)
GI50 (786-0): 13.6 µM (inactive)
GI50 (A549): 18.6 µM (inactive)
GI50 (ACHN): 8.65 µM (inactive)
GI50 (BT-549): 34.7 µM (inactive)
GI50 (CAKI-1): 14.2 µM (inactive)
GI50 (CCRF-CEM): 4.74 µM (inactive)
GI50 (COLO 205): > 100 µM (inactive)
GI50 (DU-145): 11.6 µM (inactive)
GI50 (EKVX): 20 µM (inactive)
GI50 (HCC 2998): 6.68 µM (inactive)
GI50 (HCT-116): 4.28 µM (inactive)
GI50 (HCT-15): 17.3 µM
GI50 (HL-60): 16.4 µM (inactive)
GI50 (HOP-62): 29 µM (inactive)
GI50 (HOP-92): 18.2 µM (inactive)
GI50 (HT-29): 4.88 µM (inactive)
GI50 (Hs-578T): 7.52 µM (inactive)
GI50 (IGROV-1): 13.6 µM (inactive)
GI50 (KM12): 5.64 µM (inactive)
GI50 (LOX IMVI): 8.49 µM (inactive)
GI50 (M14): 32.7 µM (inactive)
GI50 (MCF7): 15.6 µM (inactive)
GI50 (MDA-MB-231): 8.47 µM (inactive)
GI50 (MDA-MB-435): 41.2 µM (inactive)
GI50 (MDA-N): > 100 µM (inactive)
GI50 (MOLT-4): 5.32 µM (inactive)
GI50 (NCI-H23): 8.95 µM (inactive)
GI50 (NCI-H460): 7.05 µM (inactive)
GI50 (NCI-H522): 12.1 µM (inactive)
GI50 (NCI/ADR-RES): 23.2 µM (inactive)
GI50 (OVCAR-3): 22.6 µM (inactive)
GI50 (OVCAR-4): 18.3 µM (inactive)
GI50 (OVCAR-5): 87.3 µM (inactive)
GI50 (OVCAR-8): 11.9 µM (inactive)
GI50 (PC-3): 20.9 µM (inactive)
GI50 (RPMI-8226): 7.6 µM (inactive)
GI50 (SF-268): 16.5 µM (inactive)
GI50 (SF-295): 7.69 µM (inactive)
GI50 (SF-539): 8.59 µM (inactive)
GI50 (SK-MEL-28): 31.3 µM (inactive)
GI50 (SK-MEL-2): 15.2 µM (inactive)
GI50 (SK-MEL-5): 26.9 µM (inactive)
GI50 (SN12C): > 100 µM (inactive)
GI50 (SNB-19): 6.41 µM (inactive)
GI50 (SNB-75): 2.54 µM (inactive)
GI50 (SR): 12.9 µM (inactive)
GI50 (SW-620): 37.7 µM (inactive)
GI50 (T47D): 20.9 µM (inactive)
GI50 (TK-10): 22.1 µM (inactive)
GI50 (U-251): 33.5 µM (inactive)
GI50 (UACC-257): 19.4 µM (inactive)
GI50 (UACC-62): 17.1 µM (inactive)
GI50 (UO-31): 18.7 µM (inactive)
